Tested on: HEK-293, SH-SY5Y, primary human keratinocytes, THP-1 differentiated with PMA
Experiment: Transcriptomics (microarray) after anatabine treatment of 4 cell systems
Format: cell-based
Protocol: To investigate the signalling pathways triggered by anatabine, 4 cell systems (HEK-293, SH-SY5Y, primary human keratinocytes, THP-1 differentiated with PMA) were treated with 4 concentrations of anatabine (100, 200, 300, 400 μM) for 6 hours, after which transcriptomics measurements were performed.
HEK-293 is a human embryonic kidney cell line devoid of nicotinic receptors. It can be relatively easily transfected and therefore used as a tool to express various subtypes of nicotinic receptors or reporter genes such as NRF2-driven luciferase, which were also used in this study. HEK-293 were seeded in a cell culture medium consisting of EMEM, 10% FBS, 1% NEAA, 1% Sodium Pyruvate and 1% PenStrep. 60,000 cells were seeded per well of a 96-well plate.
SH-SY5Y is a human bone marrow neuroblastoma cell line that has been used by researchers to investigate the potential anti-inflammatory effect of anatabine. SH-SY5Y were seeded in a cell culture medium consisting of 50% EMEM and 50% Ham's F12 nutrient and including 10% FBS, 1% PenStrep and 1% L-glutamine. 15,000 cells were seeded per well of a 96-well plate.
Primary human keratinocytes have been included as a relevant cell system for skin. The batch of keratinocytes was selected in order to have healthy, non-smoker, 20-60 years old, Caucasian donors. The keratinocytes were seeded in a cell culture medium consisting of KGM-Gold Keratinocyte Growth Medium. 17,500 cells were seeded per well of a 96-well plate.
The human leukaemia-derived monocytic cell line THP-1, is the most widely used in vitro model for primary human macrophage investigations. THP-1 cells were seeded in a cell culture medium consisting of RPMI, 10% FBS and 1% PenStrep and in the presence of 40 ng/ml phorbol 12-myristate 13-acetate (PMA). 100,000 cells were seeded per well of a 96-well plate, having a total volume of […] per well. 48 hours later the medium was changed to the same culture medium but without PMA, and the culture was left to rest for 24 h before treatment.
All four cell systems were seeded in 96 well plates at a total volume of 190 μl per well to allow for a 20× compound stimulation with a volume of 10 μL. 24 hours after seeding—or in the case of THP-1, 24 h after changing to non-PMA medium—four cell systems were stimulated with anatabine (prepared at 20× the corresponding target concentration) to obtain a final molar concentration of 100, 200, 300, 400 μM anatabine.
In order to generate the transcriptomics data, the four cell systems were exposed to various concentrations of anatabine (100, 200, 300, 400 μM) for 6 hours. The transcriptome of the cells was analysed by a microarray-based analysis.
The cells were lysed using RLT BUFFER (Qiagen Hilden, Germany) for all cell types except the keratinocytes which were lysed with QIAZOL LYSIS REAGENT (Qiagen). RNA isolation was performed with RNEASY MICRO KIT (Qiagen). RNA quantification was assessed with a NANODROP 1000 (ThermoFisher Waltham, MA, USA) and quality of the total RNA was verified acquiring a profile with a 2100 BIOANALYZER (Agilent Technologies, Santa Clara, CA, USA), requiring an RIN number greater than 6.0. 50 ng of total RNA were processed as described in the TECAN/NUGEN OVATION RNA AMPLIFICATION SYSTEM V2 (Tecan Mannedorf, Switzerland). Human Genome U133 Plus 2.0 array were used for hybridization on a THERMOFISHER OVEN 645, washed on THERMOFISHER GENECHIP™ FLUIDICS STATIONS 450DX (protocol FS450-0004) and scanned on a THERMOFISHER GENECHIP™ SCANNER 3000 7G.
Quality control check of all chips was done with the BIOCONDUCTOR affyPLM R package version 1.64. Following quality control procedures, differential gene expression analysis was performed using the BIOCONDUCTOR LIMMA R package version 3.44.3. Pairwise comparisons at the gene level, called systems response profiles (SRP), were computed by comparing each concentration-treatment with its respective vehicle control. […]

C1=CCC(c2cccnc2)NC1 (racemic) [anatabine, 1,2,3,6-Tetrahydro-2,3′-bipyridine]
Fold Change (ATF3 gene, KEAT, anatabine 100 μM): 0.2106
Fold Change (ATF3 gene, KEAT, anatabine 200 μM): 0.3169
Fold Change (ATF3 gene, KEAT, anatabine 300 μM): 1.893
Fold Change (ATF3 gene, KEAT, anatabine 400 μM): 1.185
Fold Change (ATF3 gene, SHSY5Y, anatabine 100 μM): 0.04701
Fold Change (ATF3 gene, SHSY5Y, anatabine 200 μM): 0.3038
Fold Change (ATF3 gene, SHSY5Y, anatabine 300 μM): 0.6207
Fold Change (ATF3 gene, SHSY5Y, anatabine 400 μM): 1.206
Fold Change (ATF3 gene, THP1, anatabine 100 μM): −0.02648
Fold Change (EEF2K gene, THP1, anatabine 300 μM): −0.3419
Fold Change (EEF2K gene, THP1, anatabine 400 μM): −0.7245
Fold Change (EID3 gene, HEK293, anatabine 100 μM): 0.1833
Fold Change (EID3 gene, HEK293, anatabine 200 μM): 0.5345
Fold Change (EID3 gene, HEK293, anatabine 300 μM): 0.9247
Fold Change (EID3 gene, HEK293, anatabine 400 μM): 0.9528
Fold Change (EID3 gene, KEAT, anatabine 100 μM): 1.694
Fold Change (EID3 gene, KEAT, anatabine 200 μM): 1.995
Fold Change (EID3 gene, KEAT, anatabine 300 μM): 3.641
Fold Change (EID3 gene, KEAT, anatabine 400 μM): 3.12
Fold Change (EID3 gene, SHSY5Y, anatabine 100 μM): 0.2913
Fold Change (EID3 gene, SHSY5Y, anatabine 200 μM): 0.3156
Fold Change (EID3 gene, SHSY5Y, anatabine 300 μM): 0.6868
Fold Change (EID3 gene, SHSY5Y, anatabine 400 μM): 1.05
Fold Change (EID3 gene, THP1, anatabine 100 μM): 0.1121
Fold Change (EID3 gene, THP1, anatabine 200 μM): 0.4679
Fold Change (EID3 gene, THP1, anatabine 300 μM): 0.5698
Fold Change (EID3 gene, THP1, anatabine 400 μM): 1.615
Fold Change (FAM53C gene, HEK293, anatabine 100 μM): 0.3792
Fold Change (FAM53C gene, HEK293, anatabine 200 μM): 0.423
Fold Change (FAM53C gene, HEK293, anatabine 300 μM): 0.6969
Fold Change (FAM53C gene, HEK293, anatabine 400 μM): 0.7367
Fold Change (FAM53C gene, KEAT, anatabine 100 μM): 0.1269
Fold Change (FAM53C gene, KEAT, anatabine 200 μM): 0.2194
Fold Change (FAM53C gene, KEAT, anatabine 300 μM): 1.067
Fold Change (FAM53C gene, KEAT, anatabine 400 μM): 0.6853
Fold Change (FAM53C gene, SHSY5Y, anatabine 100 μM): 0.1212
Fold Change (FAM53C gene, SHSY5Y, anatabine 200 μM): 0.4283
Fold Change (FAM53C gene, SHSY5Y, anatabine 300 μM): 0.5427
Fold Change (FAM53C gene, SHSY5Y, anatabine 400 μM): 0.873
Fold Change (FAM53C gene, THP1, anatabine 100 μM): 0.144
Fold Change (FAM53C gene, THP1, anatabine 200 μM): 0.2515
Fold Change (FAM53C gene, THP1, anatabine 300 μM): 0.6296
Fold Change (FAM53C gene, THP1, anatabine 400 μM): 0.8729
Fold Change (FBXO30 gene, HEK293, anatabine 100 μM): 0.001539
Fold Change (FBXO30 gene, HEK293, anatabine 200 μM): 0.2872
Fold Change (FBXO30 gene, HEK293, anatabine 300 μM): 0.3586
Fold Change (FBXO30 gene, HEK293, anatabine 400 μM): 0.5949
Fold Change (FBXO30 gene, KEAT, anatabine 100 μM): 0.619
Fold Change (FBXO30 gene, KEAT, anatabine 200 μM): 0.8807
Fold Change (FBXO30 gene, KEAT, anatabine 300 μM): 1.832
Fold Change (FBXO30 gene, KEAT, anatabine 400 μM): 1.526
Fold Change (FBXO30 gene, SHSY5Y, anatabine 100 μM): −0.5195
Fold Change (FBXO30 gene, SHSY5Y, anatabine 200 μM): 0.3153
Fold Change (FBXO30 gene, SHSY5Y, anatabine 300 μM): 0.5475
Fold Change (FBXO30 gene, SHSY5Y, anatabine 400 μM): 0.9269
Fold Change (FBXO30 gene, THP1, anatabine 100 μM): 0.002856
Fold Change (FBXO30 gene, THP1, anatabine 200 μM): 0.427
Fold Change (FBXO30 gene, THP1, anatabine 300 μM): 0.6595
Fold Change (FBXO30 gene, THP1, anatabine 400 μM): 1.224
Fold Change (G0S2 gene, HEK293, anatabine 100 μM): −0.159
Fold Change (G0S2 gene, HEK293, anatabine 200 μM): −0.1114
Fold Change (G0S2 gene, HEK293, anatabine 300 μM): −0.6854
Fold Change (G0S2 gene, HEK293, anatabine 400 μM): −0.7292
Fold Change (G0S2 gene, KEAT, anatabine 100 μM): −0.3516
Fold Change (G0S2 gene, KEAT, anatabine 200 μM): −0.5508
Fold Change (G0S2 gene, KEAT, anatabine 300 μM): −1.361
Fold Change (G0S2 gene, KEAT, anatabine 400 μM): −1.016
Fold Change (G0S2 gene, SHSY5Y, anatabine 100 μM): −0.0648

Reference: US20260224547A1, “COMPOSITIONS COMPRISING ANATABINE AND USES THEREOF” (Philip Morris Products S.A., priority 2021, published 2026)
